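96-well plates; 48 h exposure; 5 concentrations. Endpoints by linear interpolation between flanking doses. Not reached: highest tested concentration assigned. GI50: concentration for 50% inhibition of growth. TGI: concentration producing complete growth inhibition.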

Some test systems named below: SK-OV-3 ovarian; HL-60(TB) leukemia; UACC-257 melanoma; SK-MEL-5 melanoma; U251 CNS; HCC-2998 colon; SNB-75 CNS; EKVX NSCLC; MOLT-4 leukemia; SR leukemia.
Assay in all cases: NCI-60 cell line screen, 48 h

Consider `CCOC(=O)c1cnc2c(cnn2CC)c1NN=C(C)C`, for which the GI50 in the assay on SK-OV-3 ovarian is 55.7 µM; in the assay on HL-60(TB) leukemia it was 59 µM; in the assay with UACC-257 melanoma it was 30.4 µM; with SK-MEL-5 melanoma, 33.1 µM; in the assay on U251 CNS, 35.6 µM; in the assay on HCC-2998 colon, more than 100 µM. For the same molecule, the GI50 in the assay with SNB-75 CNS was 36.6 µM; with EKVX NSCLC, 20.6 µM; in the assay on MOLT-4 leukemia it was 64.7 µM; in the assay on SR leukemia, 33.6 µM. For the same molecule, the TGI in the assay with SK-OV-3 ovarian, in the assay on HL-60(TB) leukemia, in the assay with UACC-257 melanoma, in the assay with SK-MEL-5 melanoma, in the assay with U251 CNS and in the assay with HCC-2998 colon was more than 100 µM throughout. In addition, the TGI in the assay with SNB-75 CNS, with EKVX NSCLC, in the assay on MOLT-4 leukemia and in the assay with SR leukemia was more than 100 µM each time.
Take `C#CC#CC#CC#CC#CC#CC#CC#CCC1OC[C@H](COC(=O)O[C@@H](C(=O)O[C@H]2C[C@@]3(O)[C@@H](OC(=O)c4ccccc4)[C@@H]4[C@]5(OC(C)=O)CO[C@@H]5C[C@H](O)[C@@]4(C)C(=O)[C@H](OC(C)=O)C(=C2C)C3(C)C)[C@@H](NC(=O)c2ccccc2)c2ccccc2)O1` (some centres undefined): the GI50 in the assay on SK-OV-3 ovarian was 1.38 µM; in the assay on HL-60(TB) leukemia it was 0.172 µM; with UACC-257 melanoma it was more than 8.84 µM; with SK-MEL-5 melanoma, 1.47 µM; in the assay on U251 CNS, 0.394 µM; in the assay with HCC-2998 colon, 0.52 µM. Besides, the GI50 in the assay with SNB-75 CNS was 0.0727 µM; in the assay on EKVX NSCLC it was more than 33.3 µM; in the assay on MOLT-4 leukemia it was 0.443 µM; with SR leukemia it was 0.182 µM. Besides, the TGI in the assay with SK-OV-3 ovarian was more than 33.3 µM; in the assay with HL-60(TB) leukemia, more than 10.9 µM; in the assay on UACC-257 melanoma, more than 33.3 µM; in the assay on SK-MEL-5 melanoma, more than 33.3 µM; with U251 CNS it was more than 33.3 µM; in the assay on HCC-2998 colon it was more than 33.3 µM. Further, the TGI with SNB-75 CNS is 0.648 µM; in the assay with EKVX NSCLC, more than 33.3 µM; with MOLT-4 leukemia, more than 33.3 µM; in the assay with SR leukemia, more than 33.3 µM.
Consider `Cc1[nH]nc(C(=O)Nc2n[nH]c3ccccc23)c1[N+](=O)[O-]`, for which the GI50 with SK-OV-3 ovarian is more than 100 µM; in the assay with HL-60(TB) leukemia it was more than 63 µM; in the assay on UACC-257 melanoma, more than 100 µM; with SK-MEL-5 melanoma, more than 60.1 µM; in the assay on U251 CNS it was more than 100 µM; with HCC-2998 colon, more than 100 µM. Besides, the GI50 in the assay with SNB-75 CNS was 64.1 µM; in the assay on EKVX NSCLC, more than 100 µM; in the assay on MOLT-4 leukemia, more than 62.5 µM. For the same molecule, the TGI in the assay on SK-OV-3 ovarian was more than 100 µM; with HL-60(TB) leukemia, more than 96.1 µM; with UACC-257 melanoma it was more than 100 µM; with SK-MEL-5 melanoma it was more than 100 µM; in the assay with U251 CNS, more than 100 µM; in the assay with HCC-2998 colon, more than 100 µM. For the same molecule, the TGI in the assay on SNB-75 CNS was more than 100 µM; in the assay on EKVX NSCLC it was more than 100 µM; in the assay with MOLT-4 leukemia, 97.7 µM; in the assay with SR leukemia it was more than 49.3 µM.
`O=C(CC(=O)c1ccccc1NC1=Cc2ccccc2C(=O)C1=O)C(=O)NC1=C(Cl)C(=O)c2ccccc2C1=O`: the TGI in the assay on SK-OV-3 ovarian is more than 83.8 µM; with HL-60(TB) leukemia, 3.42 µM; in the assay on UACC-257 melanoma, 4.49 µM; in the assay with SK-MEL-5 melanoma, 2.05 µM; in the assay on U251 CNS, 12.5 µM; with HCC-2998 colon, 26.8 µM. Further, the TGI was determined as 3.19 µM in the assay on SNB-75 CNS, 22.4 µM in the assay with EKVX NSCLC, 18 µM with MOLT-4 leukemia and 14.1 µM with SR leukemia.
Turning to `CCC(C)CC(CC)NCCN1CCN(C(CC)CC(C)CC)C1=S` (centres undefined), the GI50 in the assay on SK-OV-3 ovarian is 1.86 µM; in the assay with HL-60(TB) leukemia, 1.93 µM; in the assay on UACC-257 melanoma, 1.65 µM; in the assay on SK-MEL-5 melanoma, 1.61 µM; with U251 CNS, 1.55 µM; in the assay on HCC-2998 colon it was 1.57 µM. For the same molecule, the GI50 in the assay with SNB-75 CNS was 1.49 µM; with EKVX NSCLC it was 1.93 µM; with MOLT-4 leukemia, 2.22 µM; in the assay on SR leukemia, 1.87 µM. Also, the TGI with SK-OV-3 ovarian was found to be 3.36 µM; in the assay on HL-60(TB) leukemia, 3.77 µM; in the assay on UACC-257 melanoma, 3.1 µM; with SK-MEL-5 melanoma, 2.95 µM; in the assay with U251 CNS, 2.88 µM; in the assay with HCC-2998 colon, 2.9 µM. In addition, the TGI was 2.82 µM in the assay with SNB-75 CNS, 5.13 µM in the assay on EKVX NSCLC, 5.19 µM in the assay on MOLT-4 leukemia and 4.12 µM with SR leukemia.
For `COC1(OC)c2ccccc2C2(O)c3ccccc3C(=O)C12` (centres undefined), the TGI in the assay with SK-OV-3 ovarian was more than 100 µM; in the assay on HL-60(TB) leukemia, 46 µM; in the assay with UACC-257 melanoma, 83.9 µM; in the assay with SK-MEL-5 melanoma, 31.9 µM; in the assay with U251 CNS, more than 100 µM; in the assay on HCC-2998 colon, more than 100 µM. The TGI with SNB-75 CNS is more than 100 µM; with EKVX NSCLC, more than 100 µM; in the assay with MOLT-4 leukemia, 80.9 µM; in the assay with SR leukemia, more than 100 µM.
As for `Cc1ccc(N(C(=O)CC(=O)N2N=C(c3ccccc3)C(N=Nc3ccc([N+](=O)[O-])cc3)C2=O)C(=O)c2ccc(Cl)cc2)cc1` (centres undefined), the TGI was 32.2 µM in the assay with SK-OV-3 ovarian; more than 56.5 µM with HL-60(TB) leukemia; more than 72.7 µM in the assay with UACC-257 melanoma; 84.8 µM in the assay on SK-MEL-5 melanoma; 23.7 µM in the assay on U251 CNS; more than 100 µM in the assay with HCC-2998 colon. The TGI in the assay with SNB-75 CNS was 39.1 µM; in the assay with EKVX NSCLC, more than 100 µM; in the assay with MOLT-4 leukemia, more than 100 µM; in the assay with SR leukemia it was 23.1 µM.

The values are drawn from PubChem BioAssay (NCI).
